Test results taken from ChEMBL document CHEMBL1201862, “PubChem BioAssay data set” (2004).
Activity calls are given as the source filed them.

What was measured:
Major prion protein = Major prion protein (Homo sapiens, UniProt P04156); assay type: functional, cell-based
[1] = molecular target: T1, COUP transcription factor 2 (Homo sapiens, UniProt P24468); test: Luminescence-based cell-based high throughput dose response assay to identify inhibitors of COUP-TFII (NR2F2).; assay type: functional;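 note: HEK293 cells transiently cotransfected with COUP-TFII expression vector and reporter; luciferase reporter luminescence driven by COUP-TFII from the pX2-168 reporter plasmid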
T1 sequence (P24468 whole entry): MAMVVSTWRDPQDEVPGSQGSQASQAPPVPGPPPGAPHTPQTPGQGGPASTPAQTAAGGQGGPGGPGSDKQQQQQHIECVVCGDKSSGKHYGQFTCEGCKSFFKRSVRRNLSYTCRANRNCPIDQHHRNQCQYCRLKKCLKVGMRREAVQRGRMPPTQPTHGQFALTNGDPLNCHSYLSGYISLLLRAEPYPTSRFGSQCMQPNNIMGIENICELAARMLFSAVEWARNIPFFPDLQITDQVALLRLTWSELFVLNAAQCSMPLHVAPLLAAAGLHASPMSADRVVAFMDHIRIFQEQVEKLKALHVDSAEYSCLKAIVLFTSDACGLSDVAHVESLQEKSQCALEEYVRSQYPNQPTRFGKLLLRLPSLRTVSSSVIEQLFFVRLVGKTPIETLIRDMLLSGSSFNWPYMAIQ

[2] = molecular target: T2, Rac GTPase-activating protein 1 (Homo sapiens, UniProt Q9H0H5); test: MgcRacGAP GTPase-activating activity inhibitors, confirmation, biochemical, ADP Hunter fluorescence, primary and confirmatory (AID 624330); assay type: functional
T2 sequence (Q9H0H5 whole entry): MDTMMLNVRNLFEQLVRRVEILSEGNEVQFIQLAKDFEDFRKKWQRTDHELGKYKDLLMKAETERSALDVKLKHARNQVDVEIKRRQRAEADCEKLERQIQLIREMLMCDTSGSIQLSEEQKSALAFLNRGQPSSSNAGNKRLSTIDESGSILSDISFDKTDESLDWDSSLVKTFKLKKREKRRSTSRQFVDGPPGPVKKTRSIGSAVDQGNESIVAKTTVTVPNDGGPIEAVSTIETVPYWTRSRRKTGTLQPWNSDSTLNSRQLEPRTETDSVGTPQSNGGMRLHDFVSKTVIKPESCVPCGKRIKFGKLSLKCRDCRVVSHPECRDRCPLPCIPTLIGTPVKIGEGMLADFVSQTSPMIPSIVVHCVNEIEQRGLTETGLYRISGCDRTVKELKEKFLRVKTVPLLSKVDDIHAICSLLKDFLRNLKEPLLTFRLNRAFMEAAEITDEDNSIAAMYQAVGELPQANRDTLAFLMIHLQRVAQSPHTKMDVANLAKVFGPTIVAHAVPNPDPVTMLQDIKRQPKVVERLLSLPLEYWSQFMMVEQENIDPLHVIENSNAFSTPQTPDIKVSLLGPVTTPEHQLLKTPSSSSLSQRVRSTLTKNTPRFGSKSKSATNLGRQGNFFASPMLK

Prothrombin = Prothrombin (Homo sapiens, UniProt P00734); test: Thrombin 1536 HTS Dose Response Confirmation. [Related pubchem assays: 1046 (Thrombin 1536 HTS; hits were confirmed in this assay)]; assay type: functional
[3] = molecular target: T3, DNA repair protein RAD52 homolog (Homo sapiens, UniProt P43351); assay type: functional, biochemical
T3 sequence (P43351 whole entry): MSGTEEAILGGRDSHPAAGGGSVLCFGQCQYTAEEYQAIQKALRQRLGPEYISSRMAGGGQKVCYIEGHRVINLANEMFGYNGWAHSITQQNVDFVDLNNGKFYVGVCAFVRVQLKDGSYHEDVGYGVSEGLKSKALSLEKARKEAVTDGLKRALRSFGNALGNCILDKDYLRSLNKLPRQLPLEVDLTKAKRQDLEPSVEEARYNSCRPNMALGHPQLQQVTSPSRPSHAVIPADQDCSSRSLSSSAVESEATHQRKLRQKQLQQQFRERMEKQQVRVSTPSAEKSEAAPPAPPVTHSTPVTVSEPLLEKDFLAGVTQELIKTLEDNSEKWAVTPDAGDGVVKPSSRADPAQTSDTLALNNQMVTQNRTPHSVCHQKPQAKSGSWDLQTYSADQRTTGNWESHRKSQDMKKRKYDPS

[4] = molecular target: T4, DNA repair and recombination protein RAD54-like (Homo sapiens, UniProt Q92698); test: inhibitors of human RAD54 branch migration, confirmation, biochemical, fluorescence, cherry-picked samples, dose series (AID 651657); assay type: functional
T4 sequence (Q92698 whole entry): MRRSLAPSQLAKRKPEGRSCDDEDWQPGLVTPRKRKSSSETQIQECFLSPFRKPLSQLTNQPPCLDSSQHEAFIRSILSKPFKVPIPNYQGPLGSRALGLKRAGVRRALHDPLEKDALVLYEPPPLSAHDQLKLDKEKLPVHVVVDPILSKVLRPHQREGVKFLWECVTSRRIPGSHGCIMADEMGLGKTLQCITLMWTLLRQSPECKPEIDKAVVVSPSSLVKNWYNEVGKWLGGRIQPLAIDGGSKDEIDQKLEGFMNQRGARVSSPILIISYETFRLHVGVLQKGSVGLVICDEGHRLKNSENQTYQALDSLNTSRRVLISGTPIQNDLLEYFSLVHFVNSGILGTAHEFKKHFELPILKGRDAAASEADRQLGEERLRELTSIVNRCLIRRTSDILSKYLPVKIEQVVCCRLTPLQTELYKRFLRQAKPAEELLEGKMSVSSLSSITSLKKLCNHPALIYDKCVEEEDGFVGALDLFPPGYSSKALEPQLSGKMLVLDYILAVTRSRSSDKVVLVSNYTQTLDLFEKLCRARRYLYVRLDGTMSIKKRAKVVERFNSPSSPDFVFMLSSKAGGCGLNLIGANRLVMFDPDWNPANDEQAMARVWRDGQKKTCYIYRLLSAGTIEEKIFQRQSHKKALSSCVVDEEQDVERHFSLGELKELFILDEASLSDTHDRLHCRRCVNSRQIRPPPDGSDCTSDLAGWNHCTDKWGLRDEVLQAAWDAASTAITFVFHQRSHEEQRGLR

[5] = molecular target: T5, Heat shock factor protein 1 (Mus musculus, UniProt P38532); test: inhibition of MG132-induced HSE-luciferase signal, confirmation, cell-based, NIH3T3, luminescence, dose retest (AID 2382); assay type: functional;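 note: NIH3T3 fibroblasts with HSF1-driven luciferase reporter stressed by proteasome inhibitor MG132; luminescence from HSF1-driven luciferase expression after 8 hours of MG132 stress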
T5 sequence (P38532 whole entry): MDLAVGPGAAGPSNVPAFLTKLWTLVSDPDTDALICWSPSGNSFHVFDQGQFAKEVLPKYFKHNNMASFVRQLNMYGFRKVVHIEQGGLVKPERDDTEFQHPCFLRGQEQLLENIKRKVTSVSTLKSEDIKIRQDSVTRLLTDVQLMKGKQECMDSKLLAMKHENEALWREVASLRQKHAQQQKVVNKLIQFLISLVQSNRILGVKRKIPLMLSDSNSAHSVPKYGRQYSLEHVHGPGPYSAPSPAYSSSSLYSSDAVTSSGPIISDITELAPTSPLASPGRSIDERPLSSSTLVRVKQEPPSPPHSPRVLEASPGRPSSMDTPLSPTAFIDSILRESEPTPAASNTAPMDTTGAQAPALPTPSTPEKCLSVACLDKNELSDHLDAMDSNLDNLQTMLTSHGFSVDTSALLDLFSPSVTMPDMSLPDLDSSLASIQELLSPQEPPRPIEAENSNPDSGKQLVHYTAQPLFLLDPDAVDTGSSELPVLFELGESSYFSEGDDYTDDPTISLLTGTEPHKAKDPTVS

Caspase-6 = molecular target: T6, Caspase-6 (Homo sapiens, UniProt P55212); test: human caspase-6 inhibitors, dose response, biochemical, VEID-R110 fluorescence, cherry-pick (AID 720632)
T6 sequence (P55212 whole entry): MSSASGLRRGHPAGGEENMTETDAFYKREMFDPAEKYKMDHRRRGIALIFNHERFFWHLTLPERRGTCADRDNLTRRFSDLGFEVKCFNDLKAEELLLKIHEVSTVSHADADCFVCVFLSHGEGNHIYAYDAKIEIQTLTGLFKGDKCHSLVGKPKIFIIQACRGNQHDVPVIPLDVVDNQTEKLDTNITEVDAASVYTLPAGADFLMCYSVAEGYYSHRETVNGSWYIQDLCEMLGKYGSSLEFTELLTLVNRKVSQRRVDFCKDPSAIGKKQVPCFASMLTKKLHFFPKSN

Paired box protein Pax-8 = Paired box protein Pax-8 (Homo sapiens, UniProt Q06710); test: inhibitors of PAX8-driven TPO luciferase reporter, dose response, RMG-I cells, cherry-pick (AID 687027); assay type: functional, cell-based;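 note: luciferase reporter driven by Pax8 target thyroperoxidase promoter measured by SteadyGlo luminescence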
[6] = non-specific cell cytotoxicity, dose response, cytotoxicity control for PAX8 inhibitor project, plate reader, dry powder samples (AID 743021); assay type: functional, cell-based
[7] = HeLa cell cytotoxicity, dose response, cytotoxicity control for MgcRacGAP inhibitor project (AID 624300); assay type: functional
[8] = molecular target: T7, Histone-lysine N-methyltransferase NSD2 (Homo sapiens, UniProt O96028); assay type: biochemical
T7 sequence (O96028 whole entry): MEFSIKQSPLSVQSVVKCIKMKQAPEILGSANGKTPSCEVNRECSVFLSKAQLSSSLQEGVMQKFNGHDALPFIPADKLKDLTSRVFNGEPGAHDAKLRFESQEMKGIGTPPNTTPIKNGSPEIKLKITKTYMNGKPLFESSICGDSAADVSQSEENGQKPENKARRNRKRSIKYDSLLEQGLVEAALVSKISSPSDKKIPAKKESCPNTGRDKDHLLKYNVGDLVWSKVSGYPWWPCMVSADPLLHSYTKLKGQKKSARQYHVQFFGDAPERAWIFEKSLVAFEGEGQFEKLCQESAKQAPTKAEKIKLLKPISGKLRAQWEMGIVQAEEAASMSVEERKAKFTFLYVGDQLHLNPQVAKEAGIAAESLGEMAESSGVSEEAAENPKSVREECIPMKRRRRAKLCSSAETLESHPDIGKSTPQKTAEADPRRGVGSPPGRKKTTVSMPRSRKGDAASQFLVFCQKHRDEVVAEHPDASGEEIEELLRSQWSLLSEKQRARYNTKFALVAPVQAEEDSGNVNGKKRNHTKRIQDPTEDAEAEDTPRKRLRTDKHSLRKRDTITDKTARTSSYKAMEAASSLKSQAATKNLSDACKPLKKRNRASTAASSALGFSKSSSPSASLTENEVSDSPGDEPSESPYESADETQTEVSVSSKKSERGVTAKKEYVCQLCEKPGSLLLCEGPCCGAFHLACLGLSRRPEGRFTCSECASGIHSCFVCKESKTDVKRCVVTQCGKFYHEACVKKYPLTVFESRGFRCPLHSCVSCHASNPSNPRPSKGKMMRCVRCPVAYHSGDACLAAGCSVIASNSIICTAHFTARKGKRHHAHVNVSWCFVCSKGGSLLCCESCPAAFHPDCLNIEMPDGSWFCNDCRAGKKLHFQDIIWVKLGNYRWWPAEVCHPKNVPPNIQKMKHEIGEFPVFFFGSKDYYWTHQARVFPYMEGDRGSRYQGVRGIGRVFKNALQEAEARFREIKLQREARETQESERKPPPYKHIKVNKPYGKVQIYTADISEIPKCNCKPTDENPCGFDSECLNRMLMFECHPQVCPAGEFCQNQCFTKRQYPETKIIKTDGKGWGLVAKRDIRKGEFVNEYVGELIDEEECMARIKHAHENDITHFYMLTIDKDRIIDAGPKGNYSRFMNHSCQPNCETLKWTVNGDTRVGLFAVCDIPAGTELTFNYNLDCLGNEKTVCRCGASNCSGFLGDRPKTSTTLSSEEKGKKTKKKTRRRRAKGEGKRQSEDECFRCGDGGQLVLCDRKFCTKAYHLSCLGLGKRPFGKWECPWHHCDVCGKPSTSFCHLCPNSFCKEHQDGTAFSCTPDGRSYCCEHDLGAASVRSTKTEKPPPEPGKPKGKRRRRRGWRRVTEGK

[9] = control 3'UTR Renilla luciferase suppression, dose response, counter-screen for Shn3 inhibitor project, cell-based, Clone20-Shn3RL, cherry-picked (AID 624133); assay type: functional
[10] = Shn3 3'UTR reporter inhibitors, dose response, cell-based, Clone20 osteoblasts, firefly luciferase, cherry-picked (AID 624132); assay type: functional;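 note: firefly luciferase luminescence from reporter carrying the Shn3 3'UTR in osteoblasts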
[11] = HepG2 cell cytotoxicity, dose response, cytotoxicity control for Shn3 inhibitor project, CellTiter-Glo, cherry-picked (AID 624134); assay type: functional, cell-based
Genome polyprotein = Genome polyprotein (dengue virus type 2, UniProt P29990); test: Dengue-2 NS5 methyltransferase inhibitors, primary screen, biochemical, confirmation dose response (AID 588689); assay type: functional

O=C(COC(=O)CSc1ccc2ccccc2c1Br)NC1CC1
IC50 (Major prion protein): 4.72 µM (active)
IC50 (cells): > 138 µM (inactive)

CCOCCCN=C(S)N1CCN(c2nc(-c3ccc(F)cc3)cs2)CC1
IC50 [1]: 8.63 µM (active)

CN(C)CCCNc1ncnc2sc(-c3ccccc3)cc12
IC50 [2]: 29.9 µM (active)
IC50 (Prothrombin): > 50 µM (not active)
AC50 [3]: 14.6 µM (active)
AC50 [4]: 17.4 µM (active)

CC(C)(C)c1ccc(-c2nnc3sc(-c4ccccn4)nn23)cc1
IC50 [1]: > 85.4 µM (inactive)
EC50 [5]: 0.871 µM (active)

Cc1cc2cccc(C)c2nc1SCC(=O)NNC(=O)c1ccco1
IC50 (Major prion protein): 7.04 µM (active)
IC50 (cells): > 138 µM (inactive)

Cn1c(=S)sc2ccc3ccccc3c21
IC50 (Major prion protein): 6.25 µM (active)
IC50 (cells): 138 µM (inactive)

Cc1cc(=O)n2c3c(c4c(cc13)c(CN(C)C)cc(=O)n4C)OC2
AC50 (Caspase-6): 4.06 µM (active)
AC50 (Paired box protein Pax-8): 16.8 µM (active)
AC50 [6]: 50 µM (active)

CCN(CC)CC(C)(C)C(=O)/C=C/c1ccc(/C=C/C(=O)C(C)(C)CN(CC)CC)cc1
IC50 [2]: 158 µM (active)
CC50 [7]: 65.5 µM (active)
AC50 [8]: > 20 µM (inactive)
AC50 [9]: 1.78 µM (active)
AC50 (Paired box protein Pax-8): 2.2 µM (active)
AC50 [10]: 0.468 µM (active)
AC50 [11]: 5.07 µM (active)

CC1=C/C(=C(\c2cc(C)c(O)c(Br)c2)c2ccccc2S(=O)(=O)O)C=C(Br)C1=O
IC50 [2]: 79.4 µM (active)
CC50 [7]: 100 µM (active)
AC50 [8]: 14.6 µM (active)
IC50 (Genome polyprotein): 53.2 µM (active)

CCC(OC(=O)c1ccc(S(C)(=O)=O)c([N+](=O)[O-])c1)C(=O)NC1C2CC3CC(C2)CC1C3 (configuration not stated)
AC50 [9]: 4.49 µM (active)
AC50 (Paired box protein Pax-8): 8.07 µM (active)
AC50 [10]: 1.66 µM (active)
AC50 [11]: 7.27 µM (active)
AC50 [6]: 31.1 µM (active)
